Six molecules from paper PMC4763415, “Platinum (IV)-fatty acid conjugates overcome inherently and acquired Cisplatin resistant cancer cell lines: an in-vitro study” (BMC Cancer, 2016) can be followed below.

The subject of test [1] is A2780cisR (Cisplatin resistant ovarian cancer cells). Put plainly: XTT cell proliferation assay, A2780cisR. The class given is cell-based, human. To be noted: for IC50: Table 1, XTT, 72 h treatment, read-out: IC50 anti-proliferative activity A2780cisR; for increased anti-proliferative potency compared to Cisplatin, A2780cisR: ratio of IC50s vs Cisplatin. How it is done:
(§1) (2,3-bis-(2-methoxy-4-nitro-5-sulfophenyl)-2H-tetrazolium-5-carboxanilide) (XTT) assay was used as previously described to evaluate the cytotoxicity of the different Cisplatin derivatives. Briefly, cells (1.5 × 10^4) were plated in RPMI 1640 medium using 96-well plates for 24 h, and then treated for an additional 72 h with the different Cisplatin derivatives. A total of 50 μl of XTT solution were added to each well and incubated for 3 h at 37 °C. The optical density was measured by a multi-well plate spectrophotometer at 450 nanometers with a references’ wavelength of 630 nm. The concentrations inhibiting cell proliferation by 50 % (IC50s) of all tested derivatives were calculated. The experiment was performed in triplicate, and standard deviations were also calculated.
A general note: Formazan colour is commonly taken as a measure of viable cells.

The next test relates to A2780 cells. Put plainly: Clonigenicity assay (soft agar), A2780. To be noted: for IC50: soft agar, 2 weeks, read-out: IC50 of clonigenicity inhibition A2780; for clonigenicity IC50s values lower than Cisplatin: ovarian cancer cell lines tested (A2780, A2780cisR). The format is cell-based, human. How it is done: (§2) Clonigenicity assay was performed as previously describe. Briefly, cells (1 × 10^4) in 1 ml RPMI 10 % FBS medium were diluted in 1 ml of 0.6 % agar to give a final agar concentration of 0.3 % agar. The cells-agar mixture was poured over a hardened agar base in wells of 12-well plates and allowed to solidify. Once the top layer solidified, 1 ml of medium containing different treatments was placed on top to keep the agar moist. The cells were grown at 37 °C in a 5 % CO2 humidified atmosphere until colonies were visible (2 weeks). The plates were stained for 4 h with 5 mg/ml 3-(4,5-dimethylthiazol-2-yl)-2,5-diphenyltetrazolium bromide (MTT), and the dye was extracted with 1 ml solubilization buffer (20 % SDS, 50 % N,N-dimethyl-formamide, 25 mM HCL) for 24 h. The optical density was measured at 570 nm wavelength with a reference wavelength of 630 nm.

The subject of test [2] is A2780 (Cisplatin sensitive ovarian cancer cells). Nature of the test: XTT cell proliferation assay, A2780. To be noted: for IC50: XTT. The class given is cell-based, human. How it is done:
as §1

For a further test, the system named is A2780cisR cells. Put plainly: Clonigenicity assay (soft agar), A2780cisR. The format is cell-based, human. The settings on record: 2 weeks, read-out: IC50 of clonigenicity inhibition A2780cisR. How it is done: as §2
The test system of test [3] is K562; chronic myelogenous leukemia (CML) cell lines. Nature of the test: XTT cell proliferation assay, K562. The format is cell-based. The settings on record: for IC50: Table 1, XTT, 72 h treatment, read-out: IC50 anti-proliferative activity K562; for enhanced anti-CML activity compared to Cisplatin, K562: ratio of IC50s vs Cisplatin. How it is done: as §1
Test [4] relates to cleaved PARP in A2780cisR cells. Nature of the test: PathScan cleaved PARP (Asp214) sandwich ELISA, A2780cisR. To be noted: 30 h. The format is cell-based, human. How it is done:
Cell lysates prepared from treated ovarian cancer cells (30 h) were used for quantitative measurement of cleaved PARP according to manufacturer’s instructions (Cell signaling technology, USA). In our experiments, 20 μg of total lysate proteins from each sample were utilized.
(An ELISA detects its analyte on a solid surface through an enzyme-linked reagent.)

Test [5] concerns human embryonic kidney cell line 293A (HEK293A). Put plainly: XTT cell proliferation assay, HEK293A. The format is cell-based. To be noted: for IC50: Table 2, XTT, non-cancerous cells; for selectivity: potency against A2780 compared to HEK293A: ratio of XTT IC50s. How it is done:
as §1

Test [6] relates to PARP cleavage in A2780cisR cells. Put plainly: Apoptosis assay: PARP cleavage by immunoblot, A2780cisR. To be noted: for concentration causing significant PARP cleavage, A2780cisR: 30 h treatment. The class given is cell-based, human. How it is done: (§3) To monitor apoptosis potential of Cisplatin derivatives we followed cleavage of poly ADP ribose polymerase (PARP) protein [18]. Briefly, cells (2 × 10^5 cells/ml) were treated with Cisplatin derivatives for the indicated time. Cells were collected, washed once with cold PBS, and lysed in buffer [10 mMTris-HCl (pH 7.4), 100 mMNaCl, 1 mM EDTA, 1 mM EGTA, 1 mM NaF, 20 mM Na4P2O7, 2 mM Na3VO4, 1 % Triton x-100, 10 % Glycerol, 0.1 % sodium dodecyl sulfate (SDS), 0.5 % deoxycholate, 1 mM phenylmethylsulfonyl fluoride (PMSF), for 30 min at 4 °C. Cell lysate supernatants (40 μg protein/each) were resolved on 8 % SDS-polyacrylamide gel electrophoresis, transferred to nitrocellulose membranes, and analyzed by immune-blotting with an anti-cleaved PARP antibody (Cell signaling technology, USA ). Anti α-tubulin antibody (Santa Cruz Co., CA, USA) was used as a loading control.

The subject of test [7] is human embryonic kidney cell line 293 T (HEK293T). Nature of the test: XTT cell proliferation assay, HEK293T. The class given is cell-based. The settings on record: for IC50: Table 2, XTT, non-cancerous cells; for selectivity: potency against A2780 compared to HEK293T: ratio of XTT IC50s. How it is done:
as §1

Test [8] deals with PARP cleavage in A2780 cells. Nature of the test: Apoptosis assay: PARP cleavage by immunoblot, A2780. The class given is cell-based, human. To be noted: 30 h treatment. How it is done:
as §3
(In general: A western blot detects proteins with antibodies after separation by electrophoresis.)

The test system of test [9] is human foreskin fibroblast cells (HFF). Nature of the test: XTT cell proliferation assay, HFF. The class given is cell-based. The settings on record: for IC50: Table 2, XTT, non-cancerous cells; for ratio of IC50s against none cancerous cells (HFF) to the cancerous cell line (A2780): ratio of XTT IC50s. How it is done: as §1
The mark [10] stands for this setting: Table 1, 72 h treatment, read-out: IC50 anti-proliferative activity A2780.

SMILES strings stand for the structures. Where “and” joins values, the source holds several entries; their conditions need not be identical. Equal values may be shown once. Read-outs that look alike come from different tables or passages of the source. Where only a bound is given, the exact number is not on record here.

As for `N.N.[Cl][Pt][Cl]` [Cisplatin, cis-Diamminedichloroplatinum (II)], the IC50 came out at 19.2 µM in [1]; 2.3 µM with A2780 cells; 1.3 µM in test [2] (setting [10]); 1.3 µM in test [2] (Table 2, read-out: IC50 A2780); 4.2 µM in the test with A2780cisR cells; 5.2 µM in [3]. Moreover, the values for the IC50 in test [5], in test [7] and in test [9] were 16.3 µM, 3.2 µM and 84 µM, respectively. The “increase in levels of cleaved PARP compared to untreated sample” value (shortened to “increase in levels of cleaved PARP”) in test [4] (25 microM) is given as 2.4 fold. The “PARP cleavage in A2780cisR” value in test [6] (30 h, concentrations below 100 microM) is recorded as “very minimal cleavage of PARP”. Moreover, in test [8], the “concentration causing significant PARP cleavage, A2780” value was found to be 25 µM. The “ratio of IC50s against none cancerous cells (HFF) to the cancerous cell line (A2780)” value (from here on “ratio of IC50s”) in test [9] is 63.
In the case of `O=C1[O][Pt]2([NH][C@@H]3CCCC[C@H]3[NH]2)[O]C1=O` [Oxaliplatin, reference compound], the IC50 in test [1] was found to be 15.5 µM; in the test with A2780 cells, 0.18 µM; in [2] (setting [10]), 12.7 µM; in the test on A2780cisR cells it was 1.6 µM; in test [3], 3.2 µM.
Turning to `N.N.O=C([O-])C1(C(=O)[O-])CCC1.[Pt+2]` [Carboplatin, reference compound], the IC50 in test [1] came out at 109 µM; in test [2] (setting [10]), 16.8 µM; in test [2] (Table 2, read-out: IC50 A2780) it was 16.8 µM; in test [5] it was 105 µM; in test [7] it was 45 µM.
Take `CCCCCCCCCCCC(=O)[O][Pt]([NH2])([NH2])([Cl])([Cl])[O]C(=O)CCCCCCCCCCC` [RJY6, Cis, cis, trans-[diamminedichloro-bis-lauratoplatinum(IV)]]: the IC50 was found to be 3.3 µM in test [1]; 0.015 µM with A2780 cells; 0.7 µM in [2] (setting [10]); 0.7 µM in [2] (Table 2, read-out: IC50 A2780); 0.013 µM in the test on A2780cisR cells; 1.3 µM in test [3]. The IC50 in [5] came out at 17.3 µM; in test [7] it was 11.8 µM; in test [9] it was 82 µM. In addition, the “increased anti-proliferative potency compared to Cisplatin, A2780cisR” value in [1] is on record as 5-6 fold. Also, the “clonigenicity IC50s values lower than Cisplatin” value in the test with A2780 cells is listed as 20–30 folds. The “enhanced anti-CML activity compared to Cisplatin, K562” value in test [3] was 4 folds. The “increase in levels of cleaved PARP” value is reported as 2 fold in test [4] (1 microM), 3 fold in [4] (5 microM) and 21 fold in test [4] (25 microM). Also, the “selectivity: potency against A2780 compared to HEK293A” value in [5] came to 24 fold. Besides, the “concentration causing significant PARP cleavage, A2780cisR” value in test [6] was “above 25 microM”. In test [7], the “selectivity: potency against A2780 compared to HEK293T” value was found to be 16 fold. Besides, the “concentration causing significant PARP cleavage, A2780” value in [8] is reported as “above 25 microM”. The “ratio of IC50s” value in test [9] is 117 and 117.2.
Consider `CCCCCCCC(=O)[O][Pt]([NH2])([NH2])([Cl])([Cl])[O]C(=O)CCCCCCC` [RJY13, Cis, cis, trans-[diamminedichloro-bis-octanoatoplatinum (IV)]], for which the IC50 in test [1] turned out to be 0.57 µM; with A2780 cells it was 0.01 µM; in test [2] (setting [10]), 0.08 µM; in test [2] (Table 2, read-out: IC50 A2780), 0.08 µM; in the test on A2780cisR cells it was 0.01 µM; in test [3], 0.7 µM. The IC50 is 0.7 µM in test [5], 0.5 µM in test [7] and 2.4 µM in test [9]. In addition, in test [1], the “increased anti-proliferative potency compared to Cisplatin, A2780cisR” value came out at 33 fold. In the test with A2780 cells, the “clonigenicity IC50s values lower than Cisplatin” value is reported as 20–30 folds. Also, in test [2] (ratio of IC50s vs Cisplatin), the “increased anti-proliferative potency compared to Cisplatin, A2780” value stood at 16 fold. The “enhanced anti-CML activity compared to Cisplatin, K562” value in test [3] is 7 folds. In addition, the “increase in levels of cleaved PARP” value in test [4] (1 microM) is recorded as 4 fold; in test [4] (5 microM), 34 fold; in test [4] (25 microM) it was 37 fold. Also, the “selectivity: potency against A2780 compared to HEK293A” value in test [5] is “about 10 fold”. For the same molecule, in test [6], the “concentration causing significant PARP cleavage, A2780cisR” value was 5 µM. The “selectivity: potency against A2780 compared to HEK293T” value in [7] was “about 10 fold”. The “concentration causing significant PARP cleavage, A2780” value in test [8] worked out at 5 µM. In addition, in test [9], the “ratio of IC50s” value was found to be 30.
Consider `CCCCCCCC/C=C\CCCCCCCC(=O)[O][Pt]([NH2])([NH2])([Cl])([Cl])[O]C(=O)CCCCCCC/C=C\CCCCCCCC` [RJY3], for which the IC50 was 15 µM in [1], 0.07 µM with A2780 cells, greater than 20 µM in test [2] (setting [10]) and 9.4 µM in test [3].

A word on the IC50: it is the midpoint of a concentration-inhibition curve.
